In PMC4721142, “Randomized controlled studies on the efficacy of antiarthritic agents in inhibiting cartilage degeneration and pain associated with progression of osteoarthritis in the rat” (Arthritis Research & Therapy, 2016):
Where “and” joins values, the source holds several entries; their conditions need not be identical. Identical values can stand only once.

How the values were obtained:
[1] = test system: MMT/MCLT rat model of OA; assay: MMT/MCLT trial 1 weight bearing (daily morphine 10 mg/kg, tacrolimus 0.3 or 0.6 mg/kg, fluocinolone 5 or 10 μg/kg, clonidine 100 μg/kg, alendronate 10 μg/kg i.p.; curcumin, withaferin 50 mg/kg p.o.); assay type: in vivo; details: low or only dose
Procedure: Weight bearing (WB; incapacitance) was measured five times per day, once per week, using a Linton incapacitance meter (Stoelting Co., Wood Dale, IL, USA). Rats were acclimated to the meter before study initiation, and, similarly, immediately before WB, the animals were placed in the meter and allowed to acclimate for 2–5 minutes. Each hind paw was placed on a separate force plate so that the force exerted by each side could be averaged over a 5-second interval, and the mean of three readings was taken for each data point. Right paw force was compared with that on the left side for each group to confirm that animals were displaying incapacitance and/or pain behavior. Differences in force (left minus right) and right paw force as a percentage of the total force exerted by both paws were determined and compared between groups.
Following isoflurane anesthesia, the medial collateral ligament was transected just below its attachment to the meniscus in the right knee. The meniscus was cut at its narrowest point away from the ossicles so as not to damage the tibial surface and to ensure that the anterior and posterior meniscus halves were freely movable. […] In trial 2, drugs were administered IA weekly beginning 1 week following surgery. Three weeks postsurgery, animals were humanely killed and their right knees were collected for histopathology. All studies were conducted in accordance with the International Association for the Study of Pain Guidelines and were approved by the Bolder BioPATH IACUC (Boulder, CO, USA) in compliance with regulations before study initiation (IACUC protocol BBP03-006). Those running the studies were blinded to the treatments. See Additional file 1 for further details.
Isoflurane and the right knee area prepared for surgery. A skin incision was made over the medial aspect of the knee and the medial collateral ligament was exposed by blunt dissection and then transected. The medial meniscus was cut through the full thickness to simulate a complete tear and the skin was then closed with suture.
All pharmaceutical agents were prepared and stored as recommended by the supplier. Daily drug preparations were made fresh from stock solutions. […]
In Trial 2 drugs were […]
administered IA weekly beginning one week following surgery. […]
were delivered by gavage and were prepared in 0.3% Methyl Cellulose.
WB was measured five times a day, once a week, using a Linton incapacitance meter (Stoelting Co.) to assess pain behavior. Rats were acclimated to the incapacitance meter prior to study initiation.
Similarly, immediately prior to WB animals were placed in the incapacitance meter and allowed to acclimate for 2-5 minutes. Each hind paw was placed on a separate force plate so that the force exerted by each side could be averaged over a 5 second interval and the mean of three readings taken for each data point. Right paw force was compared to left for each group to confirm that animals were displaying incapacitance / pain behavior. Difference in force (left minus right) and right paw force as a percentage of the total force exerted by both paws were determined and compared between groups. Three weeks after surgery, animals were humanely euthanized and right knees collected for histopathology evaluation.
Figure 2. MMT/MCLT Trial Timeline […]
MMT/MCLT Dosing (once/day)
The study design and animal usage was approved by Bolder BioPATH’s Institutional Animal Care and Use Committee (IACUC) for compliance with regulations prior to study initiation (IACUC […]
Labs. Animals were identified by a distinct mark at the base of the tail delineating group and animal number. After randomization, all cages were labeled with protocol number, group numbers, and animal numbers with appropriate color-coding (see protocol).

[2] = test system: MMP-13; assay: MMP-13 ELISA on supernatants of TNF-α-treated chondrogenic pellets; assay type: cell-based, human
[3] = test system: MMT/MCLT rat model of OA; assay: MMT/MCLT trial 1 histopathology (same doses); assay type: in vivo; details: low or only dose
Text: For MMT/MCLT rat knee joints, sections were cut in 200-μm steps; stained with toluidine blue (also with a right and left half per section); and similarly analyzed for cartilage degeneration, proteoglycan loss, collagen damage, and osteophyte formation. Results were averaged across the three sections for an overall semiquantitative score. Regional differences across the tibial plateau were taken into consideration by dividing each section into three zones delineated using an ocular micrometer (outside, middle, and inside). Scores were based on the percentage of area affected within the zone.
Cartilage degeneration in the tibia was scored on a 5-point scale as detailed in the Methods section of Additional file 1. The total extent of degeneration of the tibial plateau was measured (in micrometers) and included an analysis of cell loss, proteoglycan loss, and collagen damage. Significant cartilage degeneration reflecting any degeneration extending through more than 50 % of the cartilage thickness was also measured. Collagen damage across the medial tibial plateau (the most severely affected section of the two halves) was also quantified.
Osteophytes and femoral cartilage degeneration were analyzed as detailed in Additional file 1. Scoring of the osteophytes and categorization into small, medium, and large was performed using an ocular micrometer. The actual osteophyte measurement (tidemark to farthest distance point extending toward the synovium) was also recorded. The femoral cartilage degeneration score and the three-zone sum of the tibial cartilage degeneration scores (mean of three levels) were summed to create a total cartilage degeneration score. The mean osteophyte score for each joint was added to this value to create a total joint score. […]
Histopathology MMT/MCLT Model

NCCCC(O)(P(=O)(O)O)P(=O)(O)O [Alendronate, Alendronate sodium]
Weight bearing, hours with significant effect ([1]; day 7): 5 h | Weight bearing, hours with significant effect ([1]; day 14): 1 h | Effective range against MMP-13 [2]: Not effective | Bone score ([3]; mean): 2.75 | Femoral cartilage degeneration score ([3]; mean): 1.79 and 1.79 ± 0.60 | Tibial cartilage degeneration score, 3-zone total ([3]; mean): 5.83 | Tibial cartilage degeneration score, zone 1 ([3]; mean): 3.79 | Tibial cartilage degeneration score, zone 2 ([3]; mean): 2.04 | Tibial cartilage degeneration score, zone 3 ([3]; mean): 0.00 | Tibial cartilage degeneration width, significant ([3]; mean): 650.00 µm | Tibial cartilage degeneration width, total ([3]; mean): 1175.00 µm | Tibial osteophyte measure ([3]; mean): 479.17 µm | Tibial osteophyte score ([3]; mean): 3.63 | Total joint score ([3]; mean): 11.25 | Total joint score w/o femur ([3]; mean): 9.46 | % decrease, bone score ([3]; vs saline group): 15% | % decrease, femoral cartilage degeneration score ([3]; vs saline group): 2% | % decrease, osteophyte measure ([3]; vs saline group): 7% | % decrease, osteophyte score ([3]; vs saline group): 7% | % decrease, significant degeneration width ([3]; vs saline group): 11% | % decrease, tibial score 3-zone total ([3]; vs saline group): 11% | % decrease, tibial score zone 1 ([3]; vs saline group): 12% | % decrease, tibial score zone 2 ([3]; vs saline group): 8% | % decrease, tibial score zone 3 ([3]; vs saline group): 100% | % decrease, total degeneration width ([3]; vs saline group): 10% | % decrease, total joint score ([3]; vs saline group): 8% | % decrease, total joint score w/o femur ([3]; vs saline group): 10%
